Results on one molecule are retold here after US7795237B2, “Pharmaceutical composition and process” (priority 2005, dated 2010).

Data set [1] can be described thus: Behaviour on exposure to water (gelling). In kind it is physicochemical. Particulars: crystalline form exposed to water.
For the next data set, the system named is hepatitis C virus (HCV). Nature of the data set: Viral load of patients infected with hepatitis C virus. In kind it is in vivo.

In the case of `CC(C)C(=O)OC[C@@]1(N=[N+]=[N-])O[C@@H](n2ccc(N)nc2=O)[C@H](OC(=O)C(C)C)[C@@H]1OC(=O)C(C)C.Cl` [I, isobutyric acid (2R,3S,4R,5R)-5-(4-amino-2-oxo-2H-pyrimidin-1-yl)-2-azido-3,4-bis-iso-butyryloxy-tetrahydro-furan-2-ylmethyl ester; hydrochloride salt], in data set [1], the “gel formation when exposed to water” value is recorded as “readily forms a gel when exposed to water”. In addition, the viral load entry in the data set with hepatitis C virus (HCV) was “decrease the viral load”.
